Activity calls are given as the source filed them. No rule for the calls is given here.
System: CCRIS mutagenicity, Ames/micronucleus/aberration tests
Test: CCRIS mutagenicity studies
[1] = Test System: AMES SALMONELLA TYPHIMURIUM, Strain/Indicator: TA98, Metabolic Activation: NONE, Method: PREINCUBATION
[2] = Test System: AMES SALMONELLA TYPHIMURIUM, Strain/Indicator: TA100, Metabolic Activation: NONE, Method: PREINCUBATION

Nc1ncnc2c1ncn2-c1cccc([N+](=O)[O-])c1
mutagenic call (Test System: AMES SALMONELLA TYPHIMURIUM, Strain/Indicator: TA98(1,8-DNP), Metabolic Activation: NONE, Method: PREINCUBATION): active; positive
mutagenic call (Test System: AMES SALMONELLA TYPHIMURIUM, Strain/Indicator: TA98(1,8-DNP), Metabolic Activation: RAT, LIVER, S-9, PCB, Method: PREINCUBATION): active; positive
mutagenic call (Test System: AMES SALMONELLA TYPHIMURIUM, Strain/Indicator: TA98(NR), Metabolic Activation: NONE, Method: PREINCUBATION): inactive; negative
mutagenic call (Test System: AMES SALMONELLA TYPHIMURIUM, Strain/Indicator: TA98(NR), Metabolic Activation: RAT, LIVER, S-9, PCB, Method: PREINCUBATION): inactive; negative
mutagenic call [1]: active; positive
mutagenic call (Test System: AMES SALMONELLA TYPHIMURIUM, Strain/Indicator: TA98, Metabolic Activation: RAT, LIVER, S-9, PCB, Method: PREINCUBATION): active; positive
mutagenic call (Test System: AMES SALMONELLA TYPHIMURIUM, Strain/Indicator: TA100(1,8-DNP), Metabolic Activation: NONE, Method: PREINCUBATION): active; positive
mutagenic call (Test System: AMES SALMONELLA TYPHIMURIUM, Strain/Indicator: TA100(1,8-DNP), Metabolic Activation: RAT, LIVER, S-9, PCB, Method: PREINCUBATION): active; positive
mutagenic call (Test System: AMES SALMONELLA TYPHIMURIUM, Strain/Indicator: TA100(NR), Metabolic Activation: NONE, Method: PREINCUBATION): inactive; negative
mutagenic call (Test System: AMES SALMONELLA TYPHIMURIUM, Strain/Indicator: TA100(NR), Metabolic Activation: RAT, LIVER, S-9, PCB, Method: PREINCUBATION): inactive; negative
mutagenic call [2]: active; positive
mutagenic call (Test System: AMES SALMONELLA TYPHIMURIUM, Strain/Indicator: TA100, Metabolic Activation: RAT, LIVER, S-9, PCB, Method: PREINCUBATION): active; positive
mutagenic call (Test System: AMES SALMONELLA TYPHIMURIUM, Strain/Indicator: YG1020, Metabolic Activation: NONE, Method: PREINCUBATION): active; positive
mutagenic call (Test System: AMES SALMONELLA TYPHIMURIUM, Strain/Indicator: YG1020, Metabolic Activation: RAT, LIVER, S-9, PCB, Method: PREINCUBATION): active; positive
mutagenic call (Test System: AMES SALMONELLA TYPHIMURIUM, Strain/Indicator: YG1021, Metabolic Activation: NONE, Method: PREINCUBATION): active; positive
mutagenic call (Test System: AMES SALMONELLA TYPHIMURIUM, Strain/Indicator: YG1021, Metabolic Activation: RAT, LIVER, S-9, PCB, Method: PREINCUBATION): active; positive
mutagenic call (Test System: AMES SALMONELLA TYPHIMURIUM, Strain/Indicator: YG1024, Metabolic Activation: NONE, Method: PREINCUBATION): active; positive
mutagenic call (Test System: AMES SALMONELLA TYPHIMURIUM, Strain/Indicator: YG1024, Metabolic Activation: RAT, LIVER, S-9, PCB, Method: PREINCUBATION): active; positive
mutagenic call (Test System: AMES SALMONELLA TYPHIMURIUM, Strain/Indicator: YG1025, Metabolic Activation: NONE, Method: PREINCUBATION): active; positive
mutagenic call (Test System: AMES SALMONELLA TYPHIMURIUM, Strain/Indicator: YG1025, Metabolic Activation: RAT, LIVER, S-9, PCB, Method: PREINCUBATION): active; positive
mutagenic call (Test System: AMES SALMONELLA TYPHIMURIUM, Strain/Indicator: YG1026, Metabolic Activation: NONE, Method: PREINCUBATION): active; positive
mutagenic call (Test System: AMES SALMONELLA TYPHIMURIUM, Strain/Indicator: YG1026, Metabolic Activation: RAT, LIVER, S-9, PCB, Method: PREINCUBATION): active; positive
mutagenic call (Test System: AMES SALMONELLA TYPHIMURIUM, Strain/Indicator: YG1029, Metabolic Activation: NONE, Method: PREINCUBATION): active; positive
mutagenic call (Test System: AMES SALMONELLA TYPHIMURIUM, Strain/Indicator: YG1029, Metabolic Activation: RAT, LIVER, S-9, PCB, Method: PREINCUBATION): active; positive

O=C(O)/C=C\Cl
mutagenic call (Test System: AMES SALMONELLA TYPHIMURIUM, Strain/Indicator: TA97, Metabolic Activation: RAT, LIVER, S-9, PCB, Method: STANDARD PLATE): active; positive
mutagenic call (Test System: AMES SALMONELLA TYPHIMURIUM, Strain/Indicator: TA102, Metabolic Activation: RAT, LIVER, S-9, PCB, Method: STANDARD PLATE): active; positive

[Cl][Mn][Cl]
mutagenic call [1]: inactive; negative
mutagenic call (Test System: AMES SALMONELLA TYPHIMURIUM, Strain/Indicator: TA98, Metabolic Activation: RAT LIVER S-9, PHENOBARBITAL AND BETA-NAPHTHOFLAVONE, Method: PREINCUBATION): inactive; negative
mutagenic call [2]: inactive; negative
mutagenic call (Test System: AMES SALMONELLA TYPHIMURIUM, Strain/Indicator: TA100, Metabolic Activation: RAT LIVER S-9, PHENOBARBITAL AND BETA-NAPHTHOFLAVONE, Method: PREINCUBATION): inactive; negative
mutagenic call (Test System: AMES SALMONELLA TYPHIMURIUM, Strain/Indicator: TA102, Metabolic Activation: NONE, Method: STANDARD PLATE): active; positive
mutagenic call (Test System: AMES SALMONELLA TYPHIMURIUM, Strain/Indicator: TA1535, Metabolic Activation: NONE, Method: PREINCUBATION): inactive; negative
mutagenic call (Test System: AMES SALMONELLA TYPHIMURIUM, Strain/Indicator: TA1535, Metabolic Activation: RAT LIVER S-9, PHENOBARBITAL AND BETA-NAPHTHOFLAVONE, Method: PREINCUBATION): inactive; negative
mutagenic call (Test System: AMES SALMONELLA TYPHIMURIUM, Strain/Indicator: TA1537, Metabolic Activation: NONE, Method: PREINCUBATION): inactive; negative
mutagenic call (Test System: AMES SALMONELLA TYPHIMURIUM, Strain/Indicator: TA1537, Metabolic Activation: RAT LIVER S-9, PHENOBARBITAL AND BETA-NAPHTHOFLAVONE, Method: PREINCUBATION): inactive; negative
mutagenic call (Test System: AMES SALMONELLA TYPHIMURIUM, Strain/Indicator: TA1538, Metabolic Activation: NONE, Method: PREINCUBATION): inactive; negative
mutagenic call (Test System: AMES SALMONELLA TYPHIMURIUM, Strain/Indicator: TA1538, Metabolic Activation: RAT LIVER S-9, PHENOBARBITAL AND BETA-NAPHTHOFLAVONE, Method: PREINCUBATION): inactive; negative
mutagenic call (Test System: E. COLI, Strain/Indicator: WP2 UVRA, Metabolic Activation: NONE, Method: SPOT TEST): inactive; negative
mutagenic call (Test System: E.COLI, Strain/Indicator: WP2UVRA, Metabolic Activation: NONE, Method: PREINCUBATION): inactive; negative
mutagenic call (Test System: E.COLI, Strain/Indicator: WP2UVRA, Metabolic Activation: RAT LIVER S-9, PHENOBARBITAL AND BETA-NAPHTHOFLAVONE, Method: PREINCUBATION): inactive; negative

NNc1ccn([C@@H]2C[C@H](O)[C@@H](CO)O2)c(=O)n1
mutagenic call (Test System: CHINESE HAMSTER V-79, Strain/Indicator: V-79/6-THIOGUANINE, Metabolic Activation: NONE, Method: REPLATING): inactive; negative

Reference: PubChem BioAssay AID1259407 (Chemical Carcinogenesis Research Information System (CCRIS), 2018)
